The text below walks through data of publication PMC5363571 (Oncotarget, 2016).

Where a name gives a salt, the structure may show the parent alone.

Chain of USP7 (Q93009 whole entry): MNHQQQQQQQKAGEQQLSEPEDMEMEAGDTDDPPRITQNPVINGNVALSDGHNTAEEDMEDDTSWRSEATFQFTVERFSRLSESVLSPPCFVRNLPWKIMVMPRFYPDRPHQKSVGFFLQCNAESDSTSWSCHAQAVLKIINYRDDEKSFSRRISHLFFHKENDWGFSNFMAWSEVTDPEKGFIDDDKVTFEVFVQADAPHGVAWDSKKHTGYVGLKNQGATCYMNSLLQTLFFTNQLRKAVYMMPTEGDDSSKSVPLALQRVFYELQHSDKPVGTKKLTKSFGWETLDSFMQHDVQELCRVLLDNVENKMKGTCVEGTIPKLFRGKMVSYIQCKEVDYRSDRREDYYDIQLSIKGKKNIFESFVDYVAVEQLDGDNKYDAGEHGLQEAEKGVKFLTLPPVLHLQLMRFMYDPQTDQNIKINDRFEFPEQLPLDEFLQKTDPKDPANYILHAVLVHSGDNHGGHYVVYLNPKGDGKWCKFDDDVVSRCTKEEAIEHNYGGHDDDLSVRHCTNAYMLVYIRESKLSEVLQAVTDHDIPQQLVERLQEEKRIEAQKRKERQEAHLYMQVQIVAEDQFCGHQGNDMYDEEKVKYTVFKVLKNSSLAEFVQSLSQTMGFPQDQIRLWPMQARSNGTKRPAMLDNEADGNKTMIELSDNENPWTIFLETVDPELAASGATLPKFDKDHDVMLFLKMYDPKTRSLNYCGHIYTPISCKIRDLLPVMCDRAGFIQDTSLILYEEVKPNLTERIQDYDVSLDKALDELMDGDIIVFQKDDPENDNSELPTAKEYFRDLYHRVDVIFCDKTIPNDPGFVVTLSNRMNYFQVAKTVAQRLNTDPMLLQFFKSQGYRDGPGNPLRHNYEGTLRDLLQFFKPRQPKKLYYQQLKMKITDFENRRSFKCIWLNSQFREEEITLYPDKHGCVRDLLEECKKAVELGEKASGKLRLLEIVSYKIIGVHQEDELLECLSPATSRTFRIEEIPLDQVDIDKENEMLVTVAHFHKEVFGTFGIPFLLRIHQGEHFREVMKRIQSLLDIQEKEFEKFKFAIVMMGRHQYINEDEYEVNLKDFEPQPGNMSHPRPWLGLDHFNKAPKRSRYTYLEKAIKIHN

One experiment addresses USP7 (Homo sapiens, UniProt Q93009). Description: biochemical. The arrangement: Ub-AMC hydrolysis by recombinant USP7 (20 nM), 30 min pre-incubation, fluorescence read-out. Particulars: inhibitor.
The term % Inhibition denotes the percentage by which the read-out fell short of the control. Regarding `CNC(=O)Oc1ccc2c(c1)[C@]1(C)CCN(C)[C@@H]1N2C` [Physostigmine sulfate], the “% Inhibition at 50 μM” value is less than 5%.

The experiment is the same for the next values; noted with them: read-out: % Inhibition at 50 μM.
For orientation: inhibition means the share of the control response that was lost under treatment. As for `CNC1(C)C2CCC(C2)C1(C)C` (centres unmarked) [Mecamylamine HCl], the inhibition at 50 µM was less than 5%. In the case of `CN(C)CCOC(c1ccccc1)c1ccccc1` [Diphenhydramine HCl], the inhibition at 50 µM is less than 5%. With `CC(C)(CO)[C@@H](O)C(=O)NCCC(=O)O` [Pantothenic acid], the inhibition at 50 µM was less than 5%. For `Nc1c(Br)cc(Br)cc1CN[C@H]1CC[C@H](O)CC1` [Ambroxol], the inhibition at 50 µM is less than 5%. Same read-out and setting: the same measure for `C[C@]12Cc3c[nH]nc3C[C@@H]1CC[C@@H]1[C@@H]2CC[C@@]2(C)[C@H]1CC[C@]2(C)O` [Stanozolol]: less than 5%.

In the case of `CC[C@@H]1C(=O)OC[C@@H]1Cc1cncn1C` [Pilocarpine HCl], the inhibition at 50 µM is less than 5%.

Consider `COc1ccc2c(c1)c(CC(=O)OCC(=O)O)c(C)n2C(=O)c1ccc(Cl)cc1` [Acemetacin], for which the inhibition at 50 µM stood at 19.8%. The same measure, in the same setting: under `CO[C@H]1/C=C/O[C@@]2(C)Oc3c(C)c(O)c4c(O)c(c(/C=N/N5CCN(C)CC5)c(O)c4c3C2=O)NC(=O)/C(C)=C\C=C\[C@H](C)[C@H](O)[C@@H](C)[C@@H](O)[C@@H](C)[C@H](OC(C)=O)[C@@H]1C` [Rifampicin] stands less than 5%. In the case of `COC1=C(OC)C(=O)C(CCCCCCCCCCO)=C(C)C1=O` [Idebenone], the inhibition at 50 µM was less than 5%. Consider `CC1(C)CC[C@]2(C(=O)O)CC[C@]3(C)C(=CC[C@@H]4[C@@]5(C)C[C@H](O)[C@H](O)[C@@](C)(CO)[C@@H]5CC[C@]43C)[C@@H]2C1` [Bayogenin], for which the inhibition at 50 µM is less than 5%. Still for that read-out and setting: under `CCCc1nc(C)c2c(=O)nc(-c3cc(S(=O)(=O)N4CCN(CC)CC4)ccc3OCC)[nH]n12` [Vardenafil] stands less than 5%. On the same count and under the same terms, the same measure for `O=C1CN2Cc3c(ccc(Cl)c3Cl)N=C2N1` [Anagrelide]: 8.4%. As to `C=CCc1ccccc1OCC(O)CNC(C)C` (centres unmarked) [Alprenolol HCl], the inhibition at 50 µM was less than 5%.

For `CO[C@@]12[C@H](COC(N)=O)C3=C(C(=O)C(C)=C(N)C3=O)N1C[C@@H]1N[C@@H]12` [Mitomycin c], the inhibition at 50 µM was 31.5%. For `CCC1=C[C@@H]2CN(C1)Cc1c([nH]c3ccccc13)[C@@](C(=O)OC)(c1cc3c(cc1OC)N(C)[C@H]1[C@@](O)(C(=O)OC)[C@H](OC(C)=O)[C@]4(CC)C=CCN5CC[C@]31[C@@H]54)C2` [Vinorelbine], the inhibition at 50 µM amounted to 45.3%.

With `CC(=O)SCC(Cc1ccccc1)C(=O)NCC(=O)OCc1ccccc1` (centres unmarked) [Racecadotril], the inhibition at 50 µM was less than 5%. For `Cc1cccc(Nc2ccccc2C(=O)O)c1C` [Mefenamic acid], the inhibition at 50 µM was less than 5%.

For the compound `COc1c(N2C[C@@H]3CCCN[C@@H]3C2)c(F)cc2c(=O)c(C(=O)O)cn(C3CC3)c12` [Moxifloxacin HCl], the inhibition at 50 µM is less than 5%.

On to `C[C@]12CC[C@H](O)CC1=CC[C@@H]1[C@@H]2CC[C@]2(C)C(=O)CC[C@@H]12` [Dehydroepiandrosterone], for which the inhibition at 50 µM is less than 5%. Still for that read-out and setting: under `Clc1ccc(CCC(Cn2ccnc2)Sc2c(Cl)cccc2Cl)cc1` (centres unmarked) [Butoconazole nitrate] stands less than 5%. On to `O=C(O)/C=C/c1ccc(Cn2ccnc2)cc1` [Ozagrel], for which the inhibition at 50 µM is less than 5%.

As to `Cc1ccc(C(=O)Nc2ccc(S(=O)(=O)O)c3cc(S(=O)(=O)O)cc(S(=O)(=O)O)c23)cc1NC(=O)c1cccc(NC(=O)Nc2cccc(C(=O)Nc3cc(C(=O)Nc4ccc(S(=O)(=O)O)c5cc(S(=O)(=O)O)cc(S(=O)(=O)O)c45)ccc3C)c2)c1` [Suramin sodium], the inhibition at 50 µM is less than 5%.

As to `CC(C(=O)O)c1cccc(C(=O)c2ccccc2)c1` (centres unmarked) [Ketoprofen], the inhibition at 50 µM is less than 5%. For the compound `CC(C)C(=O)c1c(C(C)C)nn2ccccc12` [Ibudilast], the inhibition at 50 µM was less than 5%. As for `C[C@H]1[C@H](C)CC[C@]2(C(=O)O)CC[C@]3(C)C(=CC[C@@H]4[C@@]5(C)CC[C@H](O)C(C)(C)[C@@H]5CC[C@]43C)[C@H]12` [Uosolic acid], the inhibition at 50 µM is 75.2%. On the same count and under the same terms, the same measure for `CCN1CCC[C@H]1CNC(=O)c1cc(S(N)(=O)=O)ccc1OC` [Sulpiride s (-)]: less than 5%; for `C[N+](C)(C)CCCCCCCCCC[N+](C)(C)C` [Decamethonium 2Br]: less than 5%.

Regarding `C#CCN(C)C(C)Cc1ccccc1` (centres unmarked) [Deprenyl], the inhibition at 50 µM was less than 5%. As to `COCCc1ccc(OCC(O)CNC(C)C)cc1` (centres unmarked) [Metoprolol tartrate], the inhibition at 50 µM was less than 5%. As for `CC(CCc1ccc(O)cc1)NCCc1ccc(O)c(O)c1` (centres unmarked) [Dobutamine HCl], the inhibition at 50 µM is less than 5%. `Oc1ncnc2[nH]ncc12` [Allopurinol]: the inhibition at 50 µM is less than 5%. For `C[C@@H]1O[C@@H](O[C@H]2C[C@@H](O)[C@]3(CO)[C@H]4[C@H](O)C[C@]5(C)[C@@H](C6=CC(=O)OC6)CC[C@]5(O)[C@@H]4CC[C@]3(O)C2)[C@H](O)[C@H](O)[C@H]1O` [Ouabain], the inhibition at 50 µM was less than 5%. For `C#Cc1cccc(Nc2ncnc3cc(OCCOC)c(OCCOC)cc23)c1` [Erlotinib], the inhibition at 50 µM was less than 5%.

Take `CCOC(=O)[N-]c1c[n+](N2CCOCC2)no1` [Molsidomine]: the inhibition at 50 µM is less than 5%. `COc1cc([C@@H]2c3cc4c(cc3[C@@H](O[C@@H]3O[C@@H]5CO[C@@H](C)O[C@H]5[C@H](O)[C@H]3O)[C@H]3COC(=O)[C@H]23)OCO4)cc(OC)c1O` [Etoposide]: the inhibition at 50 µM is less than 5%.

Regarding `CCC(C)(C)C(=O)O[C@H]1C[C@@H](C)C=C2C=C[C@H](C)[C@H](CC[C@@H]3C[C@@H](O)CC(=O)O3)[C@H]21` [Simvastatin], the inhibition at 50 µM is less than 5%. In the case of `CS(=O)(=O)Nc1ccc([N+](=O)[O-])cc1Oc1ccccc1` [Nimesulide], the inhibition at 50 µM was less than 5%.

Consider `CC(C)OC(=O)CCC/C=C\C[C@@H]1[C@@H](CC[C@@H](O)CCc2ccccc2)[C@H](O)C[C@@H]1O` [Latanoprost], for which the inhibition at 50 µM was 6.9%. In the case of `CC(=O)NC[C@H]1CN(c2ccc(N3CCOCC3)c(F)c2)C(=O)O1` [Linezolid], the inhibition at 50 µM is less than 5%.

Take `N[C@@H](Cc1ccc(O)c(O)c1)C(=O)O` [Levodopa]: the inhibition at 50 µM is less than 5%. Consider `CCCCN1C[C@H](O)[C@@H](O)[C@H](O)[C@H]1CO` [Miglustat], for which the inhibition at 50 µM was less than 5%. On to `C[C@H]1[C@H](C)CC[C@]2(C(=O)O)CC[C@]3(C)C(=CC[C@@H]4[C@@]5(C)C[C@@H](O)[C@H](O)C(C)(C)[C@@H]5CC[C@]43C)[C@H]12` [Corosolic acid], for which the inhibition at 50 µM is 43.2%. For `CNCCC(Oc1ccccc1OC)c1ccccc1` (centres unmarked) [Nisoxetine HCl], the inhibition at 50 µM is less than 5%. Same read-out and setting: the same measure for `CNC(=C[N+](=O)[O-])NCCSCc1ccc(CN(C)C)o1` [Ranitidine HCl]: less than 5%; for `Cc1c(C)c2c(c(C)c1O)CCC(C)(COc1ccc(CC3SC(=O)NC3=O)cc1)O2` (centres unmarked) [Troglitazone]: 5.3%; for `CCOC(=O)c1cnc2c(cnn2CC)c1NN=C(C)C` [Etazolate]: less than 5%. As for `CN1CCc2cccc3c2[C@H]1Cc1ccc(O)c(O)c1-3` [Apomorphine r (-)], the inhibition at 50 µM is less than 5%. Take `CC1(C)[C@H](C(=O)O)N2C(=O)C[C@H]2S1(=O)=O` [Sulbactam]: the inhibition at 50 µM is less than 5%. Take `N[C@@H](Cc1cc(I)c(Oc2cc(I)c(O)c(I)c2)c(I)c1)C(=O)O` [L-thyroxine [(3-[4-(4-hydroxy-3,5-diiodophenoxy)-3,5-diiodophenyl]-l-alanine]]: the inhibition at 50 µM amounted to 65.3%. Still for that read-out and setting: the same measure for `C[C@]12C[C@H](O)[C@H]3[C@@H](CCC4=CC(=O)CC[C@@]43C)[C@@H]1CC[C@@H]2C(=O)CO` [Corticosterone]: less than 5%; for `CC#C[C@]1(O)CC[C@H]2[C@@H]3CCC4=CC(=O)CCC4=C3[C@@H](c3ccc(N(C)C)cc3)C[C@@]21C` [Mifepristone]: less than 5%; for `O=C(O)c1cc(/N=N/c2ccc(S(=O)(=O)Nc3ccccn3)cc2)ccc1O` [Sulfasalazine]: less than 5%. `Nc1ccn([C@@H]2O[C@H](CO)[C@@H](O)C2(F)F)c(=O)n1` [Gemcitabine HCl]: the inhibition at 50 µM turned out to be 21.5%.

Consider `CCN1CCC[C@H]1CNC(=O)c1c(O)c(Cl)cc(Cl)c1OC` [Raclopride l-tartrate s(-)], for which the inhibition at 50 µM is less than 5%. For `CN1[C@@H]2CCC[C@H]1C[C@@H](NC(=O)c1nn(C)c3ccccc13)C2` [Granisetron], the inhibition at 50 µM is less than 5%.

With `O=C(O[C@@H]1C[C@@H]2C[C@H]3C[C@H](C1)N2CC3=O)c1c[nH]c2ccccc12` [Dolasetron], the inhibition at 50 µM was less than 5%. Regarding `CCc1nn(CCCN2CCN(c3cccc(Cl)c3)CC2)c(=O)n1CCOc1ccccc1` [Nefazodone], the inhibition at 50 µM was less than 5%.

With `COc1ccc(C(=O)NCc2cccnc2)cc1C(=O)NCc1cccnc1` [Picotamide], the inhibition at 50 µM was less than 5%.

As for `CC[C@H]1OC(=O)[C@H](C)[C@@H](O[C@H]2C[C@@](C)(OC)[C@@H](O)[C@H](C)O2)[C@H](C)[C@@H](O[C@@H]2O[C@H](C)C[C@H](N(C)C)[C@H]2O)[C@](C)(OC)C[C@@H](C)C(=O)[C@H](C)[C@@H](O)[C@]1(C)O` [Clarithromycin], the inhibition at 50 µM is less than 5%.

With `O=C(CCCN1CCC(O)(c2cccc(C(F)(F)F)c2)CC1)c1ccc(F)cc1` [Trifluperidol 2HCl], the inhibition at 50 µM is less than 5%. With `COc1cccc2c1C(=O)c1c(O)c3c(c(O)c1C2=O)C[C@@](O)(C(C)=O)C[C@@H]3O[C@H]1C[C@H](N)[C@H](O)[C@H](C)O1` [Daunorubicin HCl], the inhibition at 50 µM was less than 5%. As for `C[C@H]1C[C@@H]2[C@H]([C@@H](O)C[C@@]3(C)[C@H]2CC[C@]3(O)C(=O)CO)[C@@]2(C)C=CC(=O)C=C12` [Methylprednisolone], the inhibition at 50 µM is less than 5%.

For the compound `CCOC(=O)C1=C(C)NC(C)=C(C(=O)OC)C1c1cccc(Cl)c1Cl` (centres unmarked) [Felodipine], the inhibition at 50 µM was determined as 7.9%.

For the compound `CN(C)CC/C=C1/c2ccccc2COc2ccc(CC(=O)O)cc21` [Olopatadine], the inhibition at 50 µM was less than 5%.
